Reference: patent US11155668B2, “Contact-killing, QAC functionalized thermoplastic polyurethane for catheter applications” (THE UNIVERSITY OF AKRON, priority 2017, dated 2021)
Entries after “also recorded” stand apart in the source; their conditions may differ.

Columns and labels:
S. aureus = test: Live/dead fluorescence assay on blade-coated samples modified with Q8-SH; format: cell-based, Staphylococcus aureus (25923); conditions: within 5 min
Procedure: (§1) For antimicrobial testing, blade-coated samples and catheter tubing of allyl-TPU were sterilized by EtO sterilization using an Anprolene benchtop sterilizer (Anderson Products, Inc., Haw River, N.C.) following the manufacturer's protocol to deliver approximately 0.5 cc·L^−1 of EtO gas over a 12 h sterilization cycle at 35% humidity and room temperature, followed by a 48 h purge under vacuum. The bacterial strains used in this study included Staphylococcus epidermidis (ATCC 12228), Staphylococcus aureus (25923), Escherichia coli (ATCC 25922), Pseudomonas aeruginosa (ATCC 27853), Enterococcus faecalis (ATCC 29212), and methicillin-resistant Staphylococcus aureus (MRSA) (ATCC BAA-41).
A live/dead assay was performed using overnight cultures of E. coli grown in TSB and S. aureus grown in Mueller-Hinton broth (MH). The cells were washed with PBS (3×), resuspended in PBS, and diluted to obtain an OD600=0.15 (measured using a Hach DR2800 Spectrophotometer, λ=600 nm). The bacterial suspensions (1.0 mL) were stained with 2.0 μL of a dye mixture containing equal portions of 3.34 mM SYTO 9 and 20 mM propidium iodide (L7012 LIVE/DEAD™ BACLIGHT™ Bacterial Viability Kit, ThermoFisher Scientific) and allowed to incubate at room temperature in the dark for 15 min. […] Live/dead microscopy was performed using an IX81 inverted microscope (Olympus, Center Valley, Pa.) and images were processed and quantified using ImageJ software.

NIH/3T3 fibroblast cells = test: Cell viability assay (LIVE/DEAD staining) on coated coverslips; format: cell-based; conditions: for cell viability relative to glass: 24 h
Procedure: NIH/3T3 fibroblast cells (ATCC CRL-1658) were used to assess cell viability (passage 9) on the allyl-TPU films. The 8% allyl-TPU was spin-coated on blank glass coverslips (1 wt. % in chloroform) and samples were annealed at 60° C. for 1 h, then kept under vacuum for 24 h. The coated coverslips were then treated and rinsed as previously described to produce a control, phys. ads., and UV-treated sample modified with Q8-SH. Samples were sterilized by short-wave UV sterilization for 30 minutes. Cells were seeded at a cell density of 194,000 cells/cm^2 and cultured for 24 hours in a 37° C. incubator. Samples were then removed and stained with a LIVE/DEAD™ Viability/Cytotoxicity Kit (ThermoFisher Scientific L3224). Slides were analyzed with a Keyence BZ-X700 microscope at 20× magnification. Pictograms were analyzed with ImageJ software for cell viability counting (n=5). All groups were compared to the glass slide control.

P. aeruginosa = test: Contact-killing assay (adapted from ISO 22196) on allyl-TPU blade-coated samples modified with Qx-SH; format: cell-based, Pseudomonas aeruginosa (ATCC 27853); conditions: for Mean CFU/Sample Recovered, P. aeruginosa: n = 1, negative control polypropylene 7.94 × 10^6
Procedure: (§2) To functionalize the allyl-TPU blade-coated samples with Qx-SH reagents, thiol-ene reactions were performed using the same procedure described for rhodamine-SH. Briefly, blade-coated films of allyl-TPU (250 μm thick, 2.0 cm diameter, ca. 110 mg, 20 μmol allyl) were submerged in 2 mL of an Ar purged (30 min) aqueous solution containing Qx-SH (10.0 mM) and LAP (5.0 mM), and allowed to pre-soak for 30 min under Ar. UV-treated samples were irradiated for 30 min (λ=365 nm, I=1.2 mW·cm^−2) while phys. ads. samples were kept in the absence of UV light for 30 min to control for any antimicrobial activity that is contributed by non-covalently attached QAC. Following treatment, the dye/photoinitiator solutions were drawn up and discarded, and the samples were rinsed with 5 mL of DI water (3×) then submerged in 5 mL of DI water. The samples were further rinsed with 10% EtOH (3×) and soaked in 10% EtOH for 15 min (3×), rinsing with 10% EtOH in between each soak.
as §1
(§3) The contact-killing assay was performed on physically adsorbed (phys. ads.), and UV-treated blade-coated samples modified with a series of Qx-SH reagents using a method adapted from ISO 22196. See, International Organization for Standardization. Measurement of antibacterial activity on plastics and other non porous surfaces (ISO 22196:2011), the disclosure of which is incorporated herein by reference in its entirety. Briefly, the samples were inoculated with same day cultures of select bacteria (e.g. E. coli, S. epidermidis) in dilute nutrient media (0.2% tryptic soy broth (TSB) in 1× phosphate buffered saline (PBS)) at approximately 150 colony-forming units (CFU)·mm^−2. Generally, 35 uL of 8.5×10^5 CFU/mL cultures were dispersed across the surface of the sample using sterile polypropylene cover films (area=198 mm^2). Inoculated samples were incubated in a humidified room air incubator (36° C., ca. 80% rel. humidity) for 20 h. Following incubation, surviving cells were recovered from the samples using vigorous agitation (i.e. vortexing for 20 s in PBS). Surviving cells were enumerated via 10-fold series dilution and plating 100 μL onto tryptic soy agar (TSA), incubating overnight and then plate counting CFU. The mean CFU recovered per sample (CFU/sample) were calculated by accounting for dilutions. Internal controls samples of polypropylene and chlorhexidine treated with polypropylene were included in the assay.

S. epidermidis = test: as above; format: cell-based, Staphylococcus epidermidis (ATCC 12228); conditions: n = 2, negative control polypropylene 0.93 (±0.03) × 10^5
Procedure: as §2, §1, §3

E. faecalis = test: as above; format: cell-based, Enterococcus faecalis (ATCC 29212); conditions: n = 1, negative control polypropylene 1.70 × 10^5
Procedure: as §2, §1, §3

E. coli = test: Live/dead fluorescence assay on blade-coated samples modified with Q8-SH; format: cell-based, Escherichia coli (ATCC 25922); conditions: for E. coli killed: at 10 min
Procedure: as §1
A live/dead assay was performed using overnight cultures of E. coli grown in TSB and S. aureus grown in Mueller-Hinton broth (MH). The cells were washed with PBS (3×), resuspended in PBS, and diluted to obtain an OD600=0.15 (measured using a Hach DR2800 Spectrophotometer, λ=600 nm). The bacterial suspensions (1.0 mL) were stained with 2.0 μL of a dye mixture containing equal portions of 3.34 mM SYTO 9 and 20 mM propidium iodide (L7012 LIVE/DEAD™ BACLIGHT™ Bacterial Viability Kit, ThermoFisher Scientific) and allowed to incubate at room temperature in the dark for 15 min. Then, 10 μL of stained bacterial suspension was placed on a glass slide and covered with either untreated, phys. ads., or UV-treated samples modified with Q8-SH for 5 min (S. aureus) or 10 min (E. coli) before imaging. Live/dead microscopy was performed using an IX81 inverted microscope (Olympus, Center Valley, Pa.) and images were processed and quantified using ImageJ software.

[1] = UV-treated samples, within 10 min, OD600=0.15

CCCCCCCC[N+](C)(C)CCCCCCCCOC(=O)CCS.[Cl-] [Q8-SH]
portion of S. aureus killed (S. aureus; UV-treated samples): ca. 75% | S. aureus inoculum killed (in words) (S. aureus; [1]): nearly all; also recorded: majority | portion of S. aureus killed (S. aureus; phys. ads. samples): ca. 50% | cell viability relative to glass (NIH/3T3 fibroblast cells; UV-treated samples): > 90% | cytotoxicity towards mammalian cells (in words) (NIH/3T3 fibroblast cells; control, phys. ads. and UV-treated samples compared to a glass slide control, FIG. 68): non-cytotoxic | cell viability relative to glass (NIH/3T3 fibroblast cells; phys. ads. samples): > 90% | reduction of P. aeruginosa (P. aeruginosa; UV-treated samples): complete reduction | Mean CFU/Sample Recovered, P. aeruginosa (P. aeruginosa; UV-treated samples): 0.00 CFU/Sample | reduction of P. aeruginosa (P. aeruginosa; phys. ads. samples): complete reduction | Mean CFU/Sample Recovered, P. aeruginosa (P. aeruginosa; phys. ads. samples): 0.00 CFU/Sample | Mean CFU/Sample Recovered, S.epidermidis (S. epidermidis; UV-treated samples): 0.00 ± 0.00 CFU/Sample | Mean CFU/Sample Recovered, S.epidermidis (S. epidermidis; phys. ads. samples): 0.00 ± 0.00 CFU/Sample | Mean CFU/Sample Recovered, E. faecalis (E. faecalis; UV-treated samples): 0.00 CFU/Sample | Mean CFU/Sample Recovered, E. faecalis (E. faecalis; phys. ads. samples): 0.00 CFU/Sample | E. coli killed (E. coli; UV-treated samples): 90% | E. coli inoculum killed (in words) (E. coli; [1]): nearly all; also recorded: majority | E. coli killed (E. coli; phys. ads. samples): 5%
